Test results as given in patent US11006626B2, “Compounds for protection of cells” (Sulfateq B.V., priority 2012, dated 2021).

Columns and labels:
PRP platelets = PRP platelets stored with Sul 136, aggregation after stimulation with collagen; format: cell-based; set-up: key: +means that the cells show aggregation; ++means strong aggregation, these platelets can thus be activated upon stimulation; −means no aggregation upon stimulation
Description: […] • The color and coagulation properties were visually analysed. • The thrombocyte cells that survived were counted and it was evaluated whether the thrombocytes were aggregated. • It was evaluated if the thrombocytes still were able to function after stimulation by the addition of ADP or under influence of collagen in a 96 well plate. • The adhesion was evaluated, meaning the ability of the platelets to bind collagen in a 6 well plate preincubated with collagen. • Via an ELISA assay, it was evaluated whether thromboxane was secreted from the platelets. Thromboxane facilitates aggregation and is produced by activated blood platelets.
(+means that the cells show aggregation, ++means strong aggregation, these platelets can thus be activated upon stimulation, −means no aggregation upon stimulation)

apherese blood platelets = test: Apheresis platelets stored with Sul 136, hematology analysis (platelet count, MPV); format: cell-based; conditions: stored at 4° C. with Sul 136
Description: Platelets were obtained via standard plateletpheresis procedures either on Haemonetics (donor 2611811 and donor 2611855) or on Cobe instruments (donor 2611770). According the protocol all units would be obtained with plateletpheresis procedure with the Cobe instrument, but from the three donations two were not passing the blood bank quality control criteria. Nevertheless, all platelet donations have a similar concentration and a similar platelet quality. In none of the platelet concentrates clots were found. The freshly harvested platelets are weighed on a balance and for sampling of platelet concentrate a small PVC bag was seal-docked to the main platelet concentrate bag. Standard homogenization of platelet concentrate has to be done with a roller before sampling. 300 μM suspension of Sul 136 is added with a procedure, which keeps the bag content sterile and the Sul 136 is kept in suspension by frequent whirling and stored at 37° C. before it is added to the freshly harvested platelets. The Sul 136 suspension is added to three platelet bags directly from the bag. After addition, the content of the platelet bag is gently mixed. After 2 hours the first sample is drawn with a seal-docked sample bag. The sample bag is disconnected by welding and from this sample bag the samples are taken for hematology analyzing, aggregometer tests and the flow-cytometry tests. Swirling in the bag is reported by experience of the laboratory worker in the standard format. Platelets without Sul 136 put on a flatbed shaker and stored at room temperature were used as control. Another control is stored at 4° C. Platelet samples in which Sul 136 is added, are stored without shaking in a refrigerator at 4° C.

## Cc1c(C)c2c(c(C)c1O)CCC(C)(C(=O)N1CCN(CC(=O)O)CC1)O2 (racemic) [SUL - 136, 2-(4-(6-hydroxy-2,5,7,8-tetramethylchroman-2-carbonyl)piperazin-1-yl)acetic acid]
PRP platelets; 10 min 0.001 mM, 0 h
  aggregation of the PRP platelets after stimulation with collagen: +
PRP platelets; 10 min 0.01 mM, 0 h
  aggregation of the PRP platelets after stimulation with collagen: +
PRP platelets; 10 min 0.1 mM, 0 h
  aggregation of the PRP platelets after stimulation with collagen: +
PRP platelets; 10 min 1 mM, 0 h
  aggregation of the PRP platelets after stimulation with collagen: +
PRP platelets; 10 min 10 mM, 0 h
  aggregation of the PRP platelets after stimulation with collagen: ++
PRP platelets; 10 min 10 mM, 24 h
  aggregation of the PRP platelets after stimulation with collagen: ++
PRP platelets; 10 min 10 mM, 48 h
  aggregation of the PRP platelets after stimulation with collagen: ++
PRP platelets; 10 min 10 mM, 72 h
  aggregation of the PRP platelets after stimulation with collagen: ++
PRP platelets; 10 min 10 mM, 216 h
  aggregation of the PRP platelets after stimulation with collagen: ++
PRP platelets; 60 min 0.001 mM, 0 h
  aggregation of the PRP platelets after stimulation with collagen: +
PRP platelets; 60 min 0.01 mM, 0 h
  aggregation of the PRP platelets after stimulation with collagen: +
PRP platelets; 60 min 0.1 mM, 0 h
  aggregation of the PRP platelets after stimulation with collagen: +
PRP platelets; 60 min 1 mM, 0 h
  aggregation of the PRP platelets after stimulation with collagen: +
PRP platelets; 60 min 10 mM, 0 h
  aggregation of the PRP platelets after stimulation with collagen: ++
PRP platelets; 60 min 10 mM, 24 h
  aggregation of the PRP platelets after stimulation with collagen: ++
PRP platelets; 60 min 10 mM, 48 h
  aggregation of the PRP platelets after stimulation with collagen: ++
PRP platelets; 60 min 10 mM, 72 h
  aggregation of the PRP platelets after stimulation with collagen: ++
Apherese blood platelets; Donor 2, Day 1
  MPV: 10.1 fL
  Platelets/μl: 1,004,000 Platelets/μl
Apherese blood platelets; Donor 2, Day 2
  MPV: 7.6 fL
  Platelets/μl: 1,272,000 Platelets/μl
Apherese blood platelets; Donor 2, Day 3
  MPV: 7.8 fL
  Platelets/μl: 1,220,000 Platelets/μl
Apherese blood platelets; Donor 2, Day 5
  MPV: 8.0 fL
  Platelets/μl: 1,252,000 Platelets/μl
Apherese blood platelets; Donor 2, Day 8
  MPV: 8.0 fL
  Platelets/μl: 1,168,000 Platelets/μl
Apherese blood platelets; Donor 2, Day 10
  MPV: 8.1 fL
  Platelets/μl: 1,104,000 Platelets/μl
Apherese blood platelets; Donor 2, Day 12
  MPV: 8.6 fL
  Platelets/μl: 1,032,000 Platelets/μl
Apherese blood platelets; Donor 2, Day 19
  MPV: 8.8 fL
  Platelets/μl: 860,000 Platelets/μl
Apherese blood platelets; Donor 3, Day 1
  MPV: 10.3 fL
  Platelets/μl: 980,000 Platelets/μl
Apherese blood platelets; Donor 3, Day 2
  MPV: 7.7 fL
  Platelets/μl: 1,188,000 Platelets/μl
Apherese blood platelets; Donor 3, Day 3
  MPV: 7.7 fL
  Platelets/μl: 1,072,000 Platelets/μl
Apherese blood platelets; Donor 3, Day 5
  MPV: 8.0 fL
  Platelets/μl: 1,068,000 Platelets/μl
Apherese blood platelets; Donor 3, Day 8
  MPV: 8.3 fL
  Platelets/μl: 992,000 Platelets/μl
Apherese blood platelets; Donor 3, Day 10
  MPV: 8.3 fL
  Platelets/μl: 892,000 Platelets/μl
Apherese blood platelets; Donor 3, Day 12
  MPV: 9.0 fL
  Platelets/μl: 912,000 Platelets/μl
Apherese blood platelets; Donor 3, Day 19
  MPV: 9.5 fL
  Platelets/μl: 692,000 Platelets/μl
Apherese blood platelets; donor 1, Day 1
  MPV: 10.6 fL
  Platelets/μl: 1,000,000 Platelets/μl
Apherese blood platelets; donor 1, Day 2
  MPV: 9.5 fL
  Platelets/μl: 1,192,000 Platelets/μl
Apherese blood platelets; donor 1, Day 3
  MPV: 9.2 fL
  Platelets/μl: 1,240,000 Platelets/μl
Apherese blood platelets; donor 1, Day 5
  MPV: 9.1 fL
  Platelets/μl: 1,232,000 Platelets/μl
Apherese blood platelets; donor 1, Day 8
  MPV: 9.3 fL
  Platelets/μl: 1,352,000 Platelets/μl
Apherese blood platelets; donor 1, Day 10
  MPV: 9.6 fL
  Platelets/μl: 1,228,000 Platelets/μl
Apherese blood platelets; donor 1, Day 12
  MPV: 9.8 fL
  Platelets/μl: 1,204,000 Platelets/μl
Apherese blood platelets; donor 1, Day 19
  MPV: 8.8 fL
  Platelets/μl: 1,068,000 Platelets/μl
